The test system of data set [1] is T. cruzi (strain CL-Brener) epimastigote. Description: Trypanocidal activity on epimastigotes (resazurin). Type of data set: cell-based. To be noted: Trypanosoma cruzi; 6.25 μM to 100 μM, 72 h. On the procedure: (§1) VERO (ATCC CCL81) and RAW 264.7 cells (ATCC TIB71) were maintained in RPMI-1640 supplemented with 10% fetal bovine serum (FBS) (Sigma Aldrich, St. Louis, MO, USA) without phenol red at 37 °C and 5% CO2 [14]. […] Trypomastigotes were obtained from monolayers of infected VERO cells grown at 37 °C in an atmosphere with 5% CO2 in RPMI-1640, pH 7.4, supplemented with 10% FBS and 100 μg/mL gentamicin. […] Then, 2.5 × 10^5 epimastigotes/mL were resuspended in 150 μL and added to the microplates. After 48 h, resazurin was added (20 μL/well of resazurin −3 mM), incubated for further 24 h, and fluorescence was recorded as described above. Nanostructures’ effect on amastigotes was accessed in VERO cell line grown in RPMI medium containing 10% FBS and seeded at a density of 1 × 10^4 cells/well in 24-well microplates. […] Cells were fixed and stained with Kit for Fast Staining in Haematology (Figure S2), and the number of amastigotes was determined by counting 200 cells for each experimental group distributed in random microscopic fields. The IC50 values were determined by nonlinear regression in GraphPad Prism version 7.0 (GraphPad Software, San Diego, CA, USA). Selectivity indices (SI) were calculated using the formula: SI = CC50 cytotoxicity in VERO cells/IC50 cytotoxicity in intracellular amastigotes.
(In general: Alamar Blue is a resazurin reagent that responds to reducing activity.)

In data set [2] the test system is Epimastigotes of T. cruzi. Description: Ultrastructural changes in epimastigotes (SEM). The data set is classed as cell-based, Trypanosoma cruzi. The conditions noted are these: half of IC50 (BZ 7.91 µM, S 6.56 µM), 72 h. As for the experimental part: Epimastigotes of T. cruzi were grown at a density of 5 × 10^5 cells/mL in RPMI culture medium containing the compounds tested at concentrations of 7.91 µM (BZ), 6.56 µM (S), and 7.93 µM (MLS) corresponding to the half of IC50 of each compound. After 72 h these cultures were centrifuged at 1600× g for 10 min. Parasites were washed in PBS and fixed for 1 h at room temperature with 2% formaldehyde and 2.5% glutaraldehyde in sodium cacodylate buffer (0.1 M, pH 7.2). Samples were then washed in 0.1 M cacodylate buffer and adhered to coverslips previously coated with poly-L-lysine (Sigma Aldrich, St. Louis, MO, USA). After adhesion, post-fixation was performed using a solution of 1% OsO4 containing 0.8% potassium ferrocyanide (K4Fe (CN)6). Then, parasites were dehydrated in increasing concentrations of acetone (30%, 50%, 70%, 90%, and 100%), subject to critical-point drying, metalized with gold, and observed in a scanning electron microscope (SEM)- (JEOL JSM-7000F, Tokyo, Japan). Sample images were visualized using a 15 kV beam voltage.

In data set [3] the test system is T. cruzi intracellular amastigotes. Description: Trypanocidal activity on intracellular amastigotes in infected VERO cells (counting of stained cells). The data set is classed as cell-based. To be noted: Trypanosoma cruzi, 6.25 μM to 100 μM, 72 h. On the procedure: as §1
A short description of data set [4]: Cytotoxicity in VERO cells (resazurin). The conditions noted are these: African green monkey, VERO cells (ATCC CCL81), 50 μM to 800 μM, read-out: VERO Cell CC50. Type of data set: cell-based. On the procedure: (§2) VERO (ATCC CCL81) and RAW 264.7 cells (ATCC TIB71) were maintained in RPMI-1640 supplemented with 10% fetal bovine serum (FBS) (Sigma Aldrich, St. Louis, MO, USA) without phenol red at 37 °C and 5% CO2 [14]. […] Trypomastigotes were obtained from monolayers of infected VERO cells grown at 37 °C in an atmosphere with 5% CO2 in RPMI-1640, pH 7.4, supplemented with 10% FBS and 100 μg/mL gentamicin.
(§3) The reference drug benznidazole (BZ) was dissolved in dimethyl sulfoxide (DMSO) at 5% (w/v) at 0.002 M (stock) and the final concentration of DMSO in the experiments never exceeded 0.25% (v/v) to not affect the cell viability. The MLV, MLS, and free S were dispersed or dissolved in deionized water. The final concentration of these treatments in the experiments never exceeded 0.01% (v/v). […] Thereafter, 20 μL of resazurin—(0.39 mM, Sigma Aldrich, St. Louis, MO, USA) was added to each well, followed by incubation for 2 h, and then fluorescence was read on a microplate reader SpectraMax M5 (570 nmex/595 nmem) (Molecular Devices, Sunnyvale, CA, USA). Percentage of cell viability was calculated using the equation below, where A is the arbitrary fluorescence units (AFU) of the treatments, B is AFU culture medium with resazurin and C is AFU of the control group. […]

Data set [5] in a line: Cytotoxicity in RAW 264.7 macrophages (resazurin). The data set is classed as cell-based. To be noted: mouse, RAW 264.7 macrophages (ATCC TIB71), 50 μM to 800 μM, read-out: RAW 264.7 Macrophage CC50. On the procedure: as §2, §3
For data set [6] the following is noted: cited from earlier work.
The next data set relates to Trypanosoma cruzi. Set-up: method as in PMID 24410674. To be noted: acute phase, mice, after 40 days of treatment, compared to control; cited from earlier work.
Data set [7] in a line: Entrapment efficiency (filtration, absorbance at 320 nm). The conditions noted are these: for Entrapment efficiency: mean of triplicate, 320 nm. The data set is classed as physicochemical. As for the experimental part: The MLS nanostructures were evaluated in terms of drug entrapment efficiency (EE), established as a ratio between the encapsulation (ED) over the initial quantity of the drug (ID), according to the Equation (1) below: (1) EE %=ED mg/ID mg×100 For the determination of EE, the S-loaded nanostructures were filtrated in 100 kDa Amicon filters (Amicon® Ultra 0.5 mL centrifuge filters - Millipore, Darmstadt, Germany) at 300× g for 10 min, 4 °C [17]. Unentrapped drug (filtered content) was collected and the absorbance was measured at 320 nm using a biophotometer (Eppendorf BioPhotometer® 6131, Hamburg, Germany) (Figure S1). […] Experiments were performed in triplicates.

The values below come from paper PMC7730638, “Liposomes Composed by Membrane Lipid Extracts from Macrophage Cell Line as a Delivery of the Trypanocidal N,N’-Squaramide 17 towards Trypanosoma cruzi” (Materials, 2020).

Where “and” joins values, the source holds several entries; their conditions need not be identical. Equal values may be shown once.

By IC50 is commonly meant the concentration needed to halve the response being measured. Low values mean greater potency in that assay, high ones weaker potency in that assay. In general, CC50 refers to the concentration at which the toxic effect on the cells reaches its halfway point. `O=C(Cn1ccnc1[N+](=O)[O-])NCc1ccccc1` [BZ, benznidazole, reference compound]: the IC50 in data set [1] was 15.8 ± 4.63 µM; in data set [3] it was 4.76 ± 4.45 µM. Besides, the “Morphological alterations in epimastigotes” value in data set [2] is “prominences in the cell body and distortion in the flagellum”. In addition, the CC50 at 72 h was 284.4 ± 1.25 µM in data set [4] and 554.8 ± 4.9 µM in data set [5].
Consider `CCCCNc1c(N(C)CCCN(C)C)c(=O)c1=O` [S, N, N’-Squaramide 17], for which the IC50 was found to be 13.1 ± 5.12 µM in data set [1] and 51.2 ± 4.91 µM in data set [3]. In addition, the “Morphological alterations in epimastigotes” value in data set [2] is given as “a protuberance on the cell”. For the same compound, the “Partition coefficient log P” value in data set [6] is listed as 0.59. In addition, in the data set with Trypanosoma cruzi, the Reduction of parasitemia is 67%. The Entrapment efficiency in data set [7] is reported as 73.35% ± 2.05%; in data set [7] (listed as N, N’-Squaramide 17), 73.35%. The “Entrapment efficiency, single replicates” value in data set [7] (replicates 1-3, 320 nm, listed as N, N’-Squaramide 17) is 75.71% and 72.07% and 72.35%. Further, the values for the CC50 at 72 h in data set [4] and in data set [5] were 736.2 ± 1.23 µM and 1654 ± 5.2 µM, respectively.
